# From EP1394169A1, “Organometallic complex” (Hwu, Jih-Ru, priority 2002, dated 2004)
# Key:
# [1] = test system: supercoiled circular φX174 RFI DNA; assay: Single-strand DNA cleavage of supercoiled circular DNA under 350 nm UV irradiation (agarose gel); type: biochemical; settings: for (% form I) / (% form II) / (% form II)/ (% form I) / DNA forms observed on gel: 350 nm UV 2.0 h
# Experimental: Cleavage at various pH's: A reaction mixture (10 µL) containing supercoiled circular φX174 RFI DNA stock solution (50 µM/base pair), complex 1 (5.0 µM), and a phosphate buffer (0.10 M, pH 5.0, 6.0, 7.0, and 8.0) in a Pyrex vial was preincubated at 37°C. The reaction mixture was then irradiated with 350 nm UV light (32-W) for 2.0 h at room temperature. After adding a gel-loading buffer (025% bomophenol blue, 0.25% xylene cyanol, and 30% glycerol), the reaction mixture was loaded on a 1% agarose gel, followed by ethidium bromide staining. The gel was visualized by a 312-nm UV transilluminator and photographed by a FB-PDC-34 camera. Supercoiled circular DNA and cleaved DNA were clearly seen from the gel.
# Cleavage at various complex concentrations: A reaction mixtures (10 µL) containing supercoiled circular φX174 RFI DNA stock solution (50 µM/base pair), complex 1 (0.050―100 µM), and a phosphate buffer (0.10 M, pH 6.0) in a Pyrex vial was preincubated at 37°C. The mixture was irradiated with 350 nm UV light (32-W) for 2.0 h at room temperature. After adding a gel-loading buffer (0.25% bromophenol blue, 0.25% xylene cyanol, and 30% glycerol), the reaction mixture was loaded on a 1% agarose gel, followed by ethidium bromide staining. The gel was visualized by a 312-nm UV transilluminator and photographed by a FB-PDC-34 camera. Supercoiled circular DNA (form I) and cleaved DNA (form II) were clearly seen from the gel.
# 2'-deoxyguanosine = assay: Binding and cyclization reaction with 2'-deoxyguanosine (LC-mass)
# Experimental: As a comparison, a reaction involving 2'-deoxyguanosine and complex 1 was carried out. Complex 1 bound to the C-2 amino on a guanine to form a Pt-N covalent bond. […] As a result, cleavage at a guanine site required assistance from an external base (e.g., piperidine). In another experiment, an excess of complex 1 was added to a 2'-deoxyguanosine solution, followed by piperidine treatment. An intermediate was detected, at a yield of 42%, with a signal at 1063.9 for (M + H^+) as analyzed by an electron spray ionization detector in LC-mass chromatogram. The intermediate was able to give a cyclization product, at a yield of 80%, with a signal at 792.0 for (M + H^+) upon 350-nm UV light irradiation, but not in the dark. The scheme below depicts the just-described reaction: [drawing 5]
# [2] = test system: 160-bp dsDNA fragment was prepared from the 501―660 fragment of pBR322 DNA; assay: Site-specific DNA cleavage of 5'-32P-labeled 160-bp dsDNA fragment (polyacrylamide/urea gel, autoradiogram); type: biochemical; settings: complex 20―100 µM, 350-nm UV 2.0 h
# Experimental: A 160-bp dsDNA fragment was prepared from the 501―660 fragment of pBR322 DNA. It was amplified by the polymerase chain reaction (Bailly & Waring (1995) J. Am. Chem. Soc. 117:7311; Bailly et al. (1993) J. Am Chem. Soc. 115: 3784; and Sayers & Waring (1993) Biochemistry 32: 9094), and labeled at the 5'-terminus with γ-[^32P]-ATP and T4 polynucleotide kinase. A reaction mixture containing a 5'-terminus labeled ^32P-DNA solution, a phosphate buffer (0-10 M, pH 6.0), and complex 1 (20―100 µM) in a Pyrex vial was preincubated at 37°C for 30 min. The reaction mixture was irradiated with 350-nm UV light under aerobic conditions for 2.0 h at room temperature. The bound metal complexes on DNA fragments were removed by using 0.30 N NaCN (pH = 11) at 37°C for 8.0 h (Schwartz et al. (1990) J. Am. Chem. Soc. 112: 3673; and Zou et al. (1994) Biochemistry 33: 5404). The reaction mixture was then quenched with either a gel-loading buffer or 95% ethanol. […] The samples and the Maxam-Gilbert markers were analyzed using 10% polyacrylamide/8.0 M urea gel. […] Quantitation of relative intensities of DNA fragments was performed using a Microtek scanner and NIH 1.60 image program.
# The detected DNA fragments were compared with Maxam-Gilbert markers on an autoradiogram, and quantitated by a computer-assisted program.
# [3] = test system: double helical oligonucleotide d(ATAT)2; assay: DNA binding and cleaving mechanism with oligonucleotide (LC-mass); settings: 1:1, phosphate buffer pH 6.0, in the dark for 2.0 h
# Experimental: A double helical oligonucleotide d(ATAT)2 was prepared and added to a phosphate buffer solution (pH = 6.0) containing complex 1(1:1). The solution was kept in the dark for 2.0 h. An intermediate was detected, at a yield of 57%, with a signal at 650.1 for (M + H^+) as analyzed by an electron spray ionization detector in LC-mass chromatogram. Then, the solution was irradiated with 350 nm-UV light for 2.0 h at room temperature. A product was detected with a signal at 456.1 for (M + H^+). […] Then an intramolecular cyclization took place to remove the DMSO and to form a covalent bond between the N-7 nitrogen atom and the platinum in complex 1, resulting in the oligonucleotide cleavage.
# [4] = test system: supercoiled circular φX174 RFI DNA; assay: Single-strand DNA cleavage of supercoiled circular DNA under 350 nm UV irradiation (agarose gel); type: biochemical; settings: in the dark
compound,measurement,setting,value
"C[S+](C)(=O)[Pt-2]1([Cl])[O][n+]2ccccc2[S]1 (centres unmarked) [complex 1, PtCl(DMSO)[η^2-C5H4SN(O)]]",(% form I),"[1]; complex 1.0 µM, pH 6.0",37%
same,(% form II),"[1]; complex 1.0 µM, pH 6.0",63%
same,(% form II)/ (% form I),"[1]; complex 1.0 µM, pH 6.0",1.7
same,(% form I),"[1]; complex 2.5 µM, pH 6.0",20%
same,(% form II),"[1]; complex 2.5 µM, pH 6.0",80%
same,(% form II)/ (% form I),"[1]; complex 2.5 µM, pH 6.0",4.0
same,(% form I),"[1]; complex 5.0 µM, pH 6.0",7.1%
same,(% form II),"[1]; complex 5.0 µM, pH 6.0",93%
same,(% form II)/ (% form I),"[1]; complex 5.0 µM, pH 6.0",13
same,DNA forms observed on gel,"[1]; complex 5.0 µM, pH 5.0",only cleaved DNA was observed
same,DNA forms observed on gel,"[1]; complex 5.0 µM, pH 6.0",only cleaved DNA was observed
same,DNA forms observed on gel,"[1]; complex 5.0 µM, pH 7.0",only cleaved DNA was observed
same,DNA forms observed on gel,"[1]; complex 5.0 µM, pH 8.0",both supercoiled circular DNA and cleaved DNA were observed
same,DNA cleaving activity,[1]; concentration as low as 1.0 µM,very strong DNA cleaving activity
same,yield of intermediate (complex bound to guanine),"2'-deoxyguanosine; excess of complex, followed by piperidine treatment",42%
same,yield of cyclization product from intermediate,2'-deoxyguanosine; upon 350-nm UV light irradiation,80%
same,site of DNA cleavage,[2]; with hot piperidine treatment,cleaved DNA at purine residues
same,site of DNA cleavage,[2]; without piperidine treatment,at adenine residues
same,yield of intermediate (complex bound to adenine),[3],57%
same,(% form I),"[4]; complex 500 µM, pH 6.0",93%
same,(% form II),"[4]; complex 500 µM, pH 6.0",7.0%
same,(% form II)/ (% form I),"[4]; complex 500 µM, pH 6.0",0.070
same,cleavage of single-strand DNA,[4],did not occur
